Experimental data from the supplement of paper PMC13380429.

Legend:
Calu-3 [1] = experiment: drug sensitivity score (DSS) for viability; higher = more toxic; extreme values may be limits of the assay; details: 72 h
U2OS [2] = experiment: as above; details: 72 h
Caco-2 [3] = experiment: as above; details: 72 h
HepG2 [4] = experiment: as above; details: 72 h
Vero E6 [5] = experiment: as above; details: 72 h
Calu-3 [6] = experiment: relative viability EC50 (midpoint between 100% and the lowest measured viability); higher = less toxic; details: 72 h
HepG2 [7] = experiment: as above; details: 72 h
Vero E6 [8] = experiment: as above; details: 72 h
Calu-3 [9] = experiment: cell viability relative to DMSO; higher = less toxic; details: 72 h
U2OS [10] = experiment: as above; details: 72 h
Caco-2 [11] = experiment: as above; details: 72 h
HepG2 [12] = experiment: as above; details: 72 h
Vero E6 [13] = experiment: as above; details: 72 h
[14] = tested on: A549-ACE2 infected with SARS-CoV-2; experiment: cell count relative to DMSO; higher = less toxic; details: 24 h
[15] = tested on: A549-ACE2 infected with SARS-CoV-2; experiment: SARS-CoV-2 infection rate relative to DMSO; higher = more infection; details: 24 h
[16] = tested on: A549-ACE2 infected with SARS-CoV-2; experiment: morphology score (similarity to uninfected cells); higher = more like uninfected cells; details: 24 h
A549-ACE2 = experiment: drug-induced phospholipidosis relative to tamoxifen; higher = more phospholipidosis
U2OS [17] = experiment: relative viability EC50 (midpoint between 100% and the lowest measured viability); higher = less toxic; details: 72 h

Cc1csc(-c2nnc(Nc3ccc(Oc4ncccc4-c4ccnc(N)n4)cc3)c3ccccc23)c1 [AMG900]
Details	drug sensitivity score	relative viability EC50 [µM]
Caco-2 [3]	4.2	–
Calu-3 [1]	3.3	–
Calu-3 [6]	–	> 10
HepG2 [4]	13.9	–
HepG2 [7]	–	0.54
U2OS [2]	4.3	–
Vero E6 [5]	8.5	–
Vero E6 [8]	–	> 10

Details	SARS-CoV-2 infection rate, [15] [%]	cell count, [14] [%]	cell viability, Caco-2 [11] [%]	cell viability, Calu-3 [9] [%]	cell viability, HepG2 [12] [%]	cell viability, U2OS [10] [%]	cell viability, Vero E6 [13] [%]	morphology score, [16]
1 nM	–	–	94.6	104	101	93.9	100	–
10 nM	–	–	90.5	90.7	73.4	93.8	82.2	–
100 nM	–	–	96.1	92	76.6	85.5	80.4	–
0.1 µM	97	77	–	–	–	–	–	0.14
0.3 µM	93	73	–	–	–	–	–	0.2
1000 nM	–	–	77.3	77.8	53.6	82.3	81.7	–
1 µM	105	74	–	–	–	–	–	-0.05
3 µM	104	75	–	–	–	–	–	-0.08
10000 nM	–	–	65.5	81.4	2.2	68.2	75.8	–

drug-induced phospholipidosis [%], A549-ACE2
Details	0.3 µM	0.833333 µM	3.33333 µM	6.66667 µM	10 µM	30 µM
24 h	13.3	10.1	22.8	35.6	44.4	33.3
48 h	–	–	27.1	–	34.6	7.09

O=[N+]([O-])/C=C/c1ccc2c(c1)OCO2 [3,4-methylenedioxy-beta-nitrostyrene]
Details	drug sensitivity score	relative viability EC50 [µM]
Caco-2 [3]	0.9	–
Calu-3 [1]	0	–
Calu-3 [6]	–	> 10
HepG2 [4]	0	–
HepG2 [7]	–	> 10
U2OS [2]	3	–
U2OS [17]	–	3.2
Vero E6 [5]	0.6	–
Vero E6 [8]	–	> 10

Details	SARS-CoV-2 infection rate, [15] [%]	cell count, [14] [%]	cell viability, Caco-2 [11] [%]	cell viability, Calu-3 [9] [%]	cell viability, HepG2 [12] [%]	cell viability, U2OS [10] [%]	cell viability, Vero E6 [13] [%]	morphology score, [16]
1 nM	–	–	94.9	101	115	99.2	103	–
10 nM	–	–	107	105	97.9	97.5	101	–
100 nM	–	–	93.8	101	101	97.1	99.9	–
0.3 µM	95	106	–	–	–	–	–	0.14
1000 nM	–	–	104	100	95.9	100	96.9	–
3 µM	107	97	–	–	–	–	–	0.21
10000 nM	–	–	72.3	95.5	91.3	43.7	84.3	–
10 µM	39	49	–	–	–	–	–	0.48
30 µM	36	16	–	–	–	–	–	0.16

drug-induced phospholipidosis [%], A549-ACE2
Details	0.3 µM	0.833333 µM	3.33333 µM	6.66667 µM	30 µM
24 h	1.47	-0.82	0.27	3.08	-3.87
48 h	-0.23	-2.22	-2.44	-0.19	–
72 h	-0.171	-1.69	-1.41	-0.796	–

CC(C)n1cnc2c(NCCc3ccc(O)cc3)nc(-c3csc4ccccc34)nc21 [stemregenin-1]
Details	drug sensitivity score	relative viability EC50 [µM]
Caco-2 [3]	2.5	–
Calu-3 [1]	5	–
HepG2 [4]	2.3	–
U2OS [2]	1	–
U2OS [17]	–	> 10
Vero E6 [5]	0.2	–
Vero E6 [8]	–	> 10

Details	SARS-CoV-2 infection rate, [15] [%]	cell count, [14] [%]	cell viability, Caco-2 [11] [%]	cell viability, Calu-3 [9] [%]	cell viability, HepG2 [12] [%]	cell viability, U2OS [10] [%]	cell viability, Vero E6 [13] [%]	morphology score, [16]
1 nM	–	–	92.3	99.6	92.7	103	99.4	–
10 nM	–	–	104	109	91.9	101	101	–
100 nM	–	–	87.3	101	97.4	95.1	104	–
0.3 µM	93	101	–	–	–	–	–	0.34
1000 nM	–	–	99.3	80.4	91.6	96.3	100	–
3 µM	84	103	–	–	–	–	–	0.46
10000 nM	–	–	54	54.3	70.7	80.7	85.7	–
10 µM	60	117	–	–	–	–	–	0.84
30 µM	26	45	–	–	–	–	–	0

drug-induced phospholipidosis [%], A549-ACE2
Details	0.3 µM	0.833333 µM	3.33333 µM	6.66667 µM	10 µM	30 µM
24 h	6.01	1.64	8.25	15.8	28.5	16.7
48 h	9.44	5.9	8.13	14.7	21.9	–
72 h	7.3	7.32	13.4	21.2	27	–

C#C[C@]1(O)CC[C@H]2[C@@H]3CCc4cc(OC5CCCC5)ccc4[C@H]3CC[C@@]21C [quinestrol]
Details	drug sensitivity score	relative viability EC50 [µM]
Caco-2 [3]	2	–
Calu-3 [1]	4.7	–
Calu-3 [6]	–	1.98
HepG2 [4]	1.3	–
HepG2 [7]	–	> 10
U2OS [2]	0	–
U2OS [17]	–	> 10
Vero E6 [5]	0	–
Vero E6 [8]	–	> 10

Details	SARS-CoV-2 infection rate, [15] [%]	cell count, [14] [%]	cell viability, Caco-2 [11] [%]	cell viability, Calu-3 [9] [%]	cell viability, HepG2 [12] [%]	cell viability, U2OS [10] [%]	cell viability, Vero E6 [13] [%]	morphology score, [16]
1 nM	–	–	99.4	97.9	92.1	102	98.4	–
10 nM	–	–	92.1	98.6	93.2	98.9	104	–
100 nM	–	–	98.7	99.8	88.9	104	100	–
0.3 µM	103	105	–	–	–	–	–	-0.03
1000 nM	–	–	96.5	91.1	95.5	100	104	–
3 µM	85	110	–	–	–	–	–	0.43
10000 nM	–	–	67.8	41	76.6	93.8	87.4	–
10 µM	41	85	–	–	–	–	–	0.68
30 µM	42	23	–	–	–	–	–	0.01

drug-induced phospholipidosis [%], A549-ACE2
Details	0.3 µM	0.833333 µM	3.33333 µM	6.66667 µM	10 µM	30 µM
24 h	11.1	13.7	17.2	16.9	13.9	23.3
48 h	12.2	17.8	21.2	25.8	23.6	37.6
72 h	8.56	16.2	19.1	27.3	29.2	–
